Assay results reported in article PMC9166630, “SAR Probing of KX2-391 Provided Analogues With Juxtaposed Activity Profile Against Major Oncogenic Kinases” (Frontiers in Oncology, 2022).

Assays:
Details in all cases: 4e 0.1 µM, HL60 lysate
EphA1 = target: T1, EphA1 (Homo sapiens, UniProt P21709); experiment: PamChip tyrosine kinase microarray, EphA1; type: biochemical
T1 construct: endogenous in cells; host or cells: HL60 lysate
T1 sequence (P21709 26-976): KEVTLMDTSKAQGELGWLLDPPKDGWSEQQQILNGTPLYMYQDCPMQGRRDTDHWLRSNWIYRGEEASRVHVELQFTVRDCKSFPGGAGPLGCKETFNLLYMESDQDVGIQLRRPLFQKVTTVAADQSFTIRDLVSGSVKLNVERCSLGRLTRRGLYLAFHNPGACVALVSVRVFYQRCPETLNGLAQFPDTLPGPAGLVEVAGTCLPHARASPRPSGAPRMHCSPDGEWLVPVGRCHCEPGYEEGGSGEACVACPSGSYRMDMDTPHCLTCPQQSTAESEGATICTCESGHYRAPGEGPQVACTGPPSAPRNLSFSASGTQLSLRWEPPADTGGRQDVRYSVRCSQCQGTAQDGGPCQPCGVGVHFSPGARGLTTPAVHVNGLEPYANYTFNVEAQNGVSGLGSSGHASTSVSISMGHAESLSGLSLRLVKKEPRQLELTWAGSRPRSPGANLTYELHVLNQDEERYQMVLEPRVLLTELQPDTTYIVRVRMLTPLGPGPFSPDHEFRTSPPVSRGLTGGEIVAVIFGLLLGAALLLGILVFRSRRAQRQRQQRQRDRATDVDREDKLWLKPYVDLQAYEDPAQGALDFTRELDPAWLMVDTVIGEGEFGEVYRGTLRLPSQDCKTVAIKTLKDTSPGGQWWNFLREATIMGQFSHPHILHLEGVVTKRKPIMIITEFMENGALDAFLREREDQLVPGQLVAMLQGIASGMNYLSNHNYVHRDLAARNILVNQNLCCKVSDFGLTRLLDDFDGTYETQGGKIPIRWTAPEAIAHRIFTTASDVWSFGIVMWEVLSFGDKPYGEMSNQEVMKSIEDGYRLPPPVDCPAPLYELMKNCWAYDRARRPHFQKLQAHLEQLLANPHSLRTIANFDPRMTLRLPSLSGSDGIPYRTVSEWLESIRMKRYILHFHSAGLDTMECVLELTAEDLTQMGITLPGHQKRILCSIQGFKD
Method: (§1) The changes in kinase activities induced by treatment with 4e were monitored within the HL60 cell lines using PamGene’s (Hertogenbosch, Netherlands) PamChip® peptide microarray profiler, which quantifies the activities of 144 tyrosine kinases (YK) ([29], [30]) (Figure 7). Results are provided as a log fold change (LFC) heatmap and Mean Kinase Statistic. From the LFC it is apparent that compound 4e, at a concentration of 0.1 µM, induced sizable changes to the activity of several kinases within the cell signaling YK profile (Figure 7A).
(§2) An Upstream Kinase tool was used to generate a putative list of kinases responsible for phosphorylating the phospho-sites on the PamChip (Figure 7B) ([31]). It is an interpretation and is highly dependent on the contents of the underlying phosphorylation databases. A Kinase Score was used for ranking kinases based on their significance and specificity in terms of the set of peptides used for the corresponding kinase. Kinase Statistics indicates the overall change of the peptide set that represents the kinase. Kinase statistics value <0 indicates lower kinase activity in the compound spiked lysate and vice versa ([32], [33]). Table 5 lists the 20 most changed kinases within treated HL60 cell lysates by 0.1 μM 4e, ranked according to their Kinase Score.
(§3) The compound 4e was spiked into HL60 cell lysate at different concentrations (0.001, 0.01, 0.1, 1, 10 and 50 μM). In addition, DMSO was also spiked in HL60 lysate at low concentration (2% v/v) as control. Samples were profiled on PamGene’s Tyrosine Kinase (PTK) arrays in technical replicates, covering a total of 196 phosphorylation sites. Frozen HL60 cultured cell pellet was sent to PamGene. At PamGene, cells were lysed using a lysis buffer and proteases inhibitors cocktail. Protein concentration was measured using standard Bradford assay as per PamGene SOPs. These lysates were further used for generating the PTK activity profiles. For spiking, 4e was received as powder form and dissolved in DMSO at PamGene facility followed by storing at -20°C in small aliquots. PamGene used its in-house bioinformatics toolbox in combination with other methods to generate hypotheses of signaling pathways.

EphA2 = target: T2, EphA2 (Homo sapiens, UniProt P29317); experiment: PamChip tyrosine kinase microarray, EphA2; type: biochemical
T2 construct: endogenous in cells; host or cells: HL60 lysate
T2 sequence (P29317 24-976): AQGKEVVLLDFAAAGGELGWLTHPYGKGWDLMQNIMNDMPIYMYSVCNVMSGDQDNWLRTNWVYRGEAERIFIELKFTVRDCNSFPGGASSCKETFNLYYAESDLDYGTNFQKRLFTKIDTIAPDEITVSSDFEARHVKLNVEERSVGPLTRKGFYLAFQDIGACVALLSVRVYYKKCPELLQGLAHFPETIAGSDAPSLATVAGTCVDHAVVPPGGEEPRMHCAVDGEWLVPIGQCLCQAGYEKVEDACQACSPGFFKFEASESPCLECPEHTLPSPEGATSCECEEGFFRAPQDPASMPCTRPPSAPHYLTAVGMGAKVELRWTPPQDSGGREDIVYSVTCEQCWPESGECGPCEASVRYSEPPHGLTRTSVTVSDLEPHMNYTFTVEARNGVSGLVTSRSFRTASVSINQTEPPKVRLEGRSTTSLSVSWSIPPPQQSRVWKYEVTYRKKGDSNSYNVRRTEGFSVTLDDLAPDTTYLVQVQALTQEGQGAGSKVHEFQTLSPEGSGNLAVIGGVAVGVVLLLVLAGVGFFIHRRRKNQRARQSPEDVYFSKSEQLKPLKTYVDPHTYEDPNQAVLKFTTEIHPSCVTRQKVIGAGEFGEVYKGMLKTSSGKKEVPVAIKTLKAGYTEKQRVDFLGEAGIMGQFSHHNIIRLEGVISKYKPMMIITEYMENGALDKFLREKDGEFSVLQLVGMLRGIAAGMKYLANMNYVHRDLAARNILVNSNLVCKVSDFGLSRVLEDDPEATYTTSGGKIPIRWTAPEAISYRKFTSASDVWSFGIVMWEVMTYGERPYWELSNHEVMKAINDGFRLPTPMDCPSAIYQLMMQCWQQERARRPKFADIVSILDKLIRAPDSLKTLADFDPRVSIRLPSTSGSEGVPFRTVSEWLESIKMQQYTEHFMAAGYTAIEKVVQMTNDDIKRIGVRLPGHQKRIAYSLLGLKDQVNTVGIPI
Method: as §1, §2, §3

Ron = experiment: PamChip tyrosine kinase microarray, Ron; type: biochemical, human
Method: as §1, §2, §3

Src = experiment: PamChip tyrosine kinase microarray, Src; type: biochemical, human
Method: as §1, §2
(§4) The two multiple-kinase tests (PamChip and Phosphokinase Profiler) provided strong evidence of very minor involvement of Src in the cellular activities of 4e. However, the question must be raised about the effect of the 4e on other SRC family kinase (SFK). To address this point, we must highlight that both R&D phosphokinase profiler and PamChip feature Yes, Fgr, Lyn, Lck and Src while Fyn, Hck, Blk and Frk activities are tested in the PamChip only. The signals of SFKs in the R&D Phosphokinase Profiler were too weak to detect in both untreated (control) and 4e-treated HL60 cells. In PamChip assay, most of SFK’s were not ranked in the top 20 affected kinases (Table 5). In addition, their Specificity Score were very low (Table 6) indicating their marginal importance to the cell killing activities of 4e. Fgr kinase which ranked 7th in the list (Table 5) was the only SFK member that seems to be affected by the compound, albeit with low Specificity Score (1.03).
(§5) The compound 4e was spiked into HL60 cell lysate at different concentrations (0.001, 0.01, 0.1, 1, 10 and 50 μM). In addition, DMSO was also spiked in HL60 lysate at low concentration (2% v/v) as control. Samples were profiled on PamGene’s Tyrosine Kinase (PTK) arrays in technical replicates, covering a total of 196 phosphorylation sites. Frozen HL60 cultured cell pellet was sent to PamGene. […] Protein concentration was measured using standard Bradford assay as per PamGene SOPs. […]

Blk = experiment: PamChip tyrosine kinase microarray, Blk; type: biochemical, human
Method: as §1, §2, §4, §5

CSK = target: T3, CSK (Homo sapiens, UniProt P41240); experiment: PamChip tyrosine kinase microarray, CSK; type: biochemical
T3 construct: endogenous in cells; host or cells: HL60 lysate
T3 sequence (P41240 whole entry): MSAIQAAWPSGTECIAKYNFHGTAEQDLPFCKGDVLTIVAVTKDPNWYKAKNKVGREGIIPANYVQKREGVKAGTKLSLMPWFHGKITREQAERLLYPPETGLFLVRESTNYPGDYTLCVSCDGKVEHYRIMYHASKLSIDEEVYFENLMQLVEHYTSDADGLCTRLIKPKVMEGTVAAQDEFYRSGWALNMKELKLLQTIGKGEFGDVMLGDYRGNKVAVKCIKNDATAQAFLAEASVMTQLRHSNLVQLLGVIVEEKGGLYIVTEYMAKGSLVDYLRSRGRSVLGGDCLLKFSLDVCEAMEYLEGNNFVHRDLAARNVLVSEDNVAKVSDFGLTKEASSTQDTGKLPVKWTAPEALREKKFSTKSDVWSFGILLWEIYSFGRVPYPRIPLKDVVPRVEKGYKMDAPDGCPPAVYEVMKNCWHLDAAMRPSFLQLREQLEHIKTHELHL
Method: as §1, §2, §3

Frk = experiment: PamChip tyrosine kinase microarray, Frk; type: biochemical, human
Method: as §1, §2, §4, §5

CTK = experiment: PamChip tyrosine kinase microarray, CTK; type: biochemical, human
Method: as §1, §2, §3

Etk/BMX = experiment: PamChip tyrosine kinase microarray, Etk/BMX; type: biochemical, human
Method: as §1, §2, §3

SMILES: O=C(Cc1ccc(NC(=O)c2cccc(Cl)c2)cc1)NCc1ccccc1 [Compound 4e, N-(4-(2-(benzylamino)-2-oxoethyl)phenyl)-3-chlorobenzamide]
- Mean Final Score (EphA1): 1.8401
- Mean Kinase Statistic (EphA1): -0.6954
- Mean Significance Score (EphA1): 1.1254
- Mean Specificity Score (EphA1): 0.7147
- Mean Final Score (EphA2): 2.4004
- Mean Kinase Statistic (EphA2): -0.7066
- Mean Significance Score (EphA2): 1.5807
- Mean Specificity Score (EphA2): 0.8197
- Mean Final Score (Ron): 1.8398
- Mean Kinase Statistic (Ron): -0.6967
- Mean Significance Score (Ron): 1.0254
- Mean Specificity Score (Ron): 0.8144
- Mean Final Score (Src): 0.7589
- Mean Kinase Statistic (Src): -0.3527
- Mean Significance Score (Src): 0.7353
- Mean Specificity Score (Src): 0.0236
- Mean Final Score (Blk): 0.7362
- Mean Kinase Statistic (Blk): -0.3552
- Mean Significance Score (Blk): 0.6625
- Mean Specificity Score (Blk): 0.0736
- Mean Final Score (CSK): 1.9356
- Mean Kinase Statistic (CSK): -0.5346
- Mean Significance Score (CSK): 1.2107
- Mean Specificity Score (CSK): 0.7249
- Mean Final Score (Frk): 1.6587
- Mean Kinase Statistic (Frk): -0.5116
- Mean Significance Score (Frk): 1.1484
- Mean Specificity Score (Frk): 0.5102
- Mean Final Score (CTK): 1.5802
- Mean Kinase Statistic (CTK): -0.4874
- Mean Significance Score (CTK): 1.1881
- Mean Specificity Score (CTK): 0.3920
- Mean Final Score (Etk/BMX): 1.7640
- Mean Kinase Statistic (Etk/BMX): -0.5143
- Mean Significance Score (Etk/BMX): 1.3079
- Mean Specificity Score (Etk/BMX): 0.4561
